These results are taken from PMC8839448, “Novel Pyridothienopyrimidine Derivatives: Design, Synthesis and Biological Evaluation as Antimicrobial and Anticancer Agents” (Molecules, 2022).

Converted amounts (≈) assume the structure as drawn. “And” between values parts separate entries of the source, which are not always exact repeats. Equal entries are not always repeated.

For orientation: MIC means the lowest concentration found to suppress growth. As a reminder, the IC50 is the concentration needed to halve the response being measured. As usually defined, the melting point is the temperature, or range, at which the solid turns liquid.

Data set [1] relates to five bacterial strains. Nature of the data set: Antibacterial MIC, range over the panel. In kind it is cell-based.
Data set [2] concerns Salmonella typhimurium 14028. The experiment in a line: In vitro antibacterial activity, MIC by broth dilution. Particulars: Salmonella enterica, Gram −ve bacteria, read-out: MIC S. typhimurium. In kind it is cell-based. Background: In broth dilution the organism is exposed to a series of concentrations in liquid medium.
Data set [3] deals with Bacillus cereus 33018. The description is as above. Particulars: Gram +ve bacteria, read-out: MIC B. cereus. The data set is classed as cell-based.
The subject of data set [4] is Staphylococcus aureus 25923. The description is as above. The data set is classed as cell-based. Conditions: Gram +ve bacteria, read-out: MIC S. aureus.
The test system of data set [5] is Bacillus subtilis 6633. The description is as above. Conditions: Gram +ve bacteria, read-out: MIC B. subtilis. The data set is classed as cell-based.
In data set [6] the test system is five bacterial and five fungal strains. Nature of the data set: Antimicrobial MIC, range over bacterial and fungal strains. The data set is classed as cell-based. Conditions: for MIC range of the reference drugs: range over strains.
Data set [7] has as its system Escherichia coli 8739. The experiment in a line: In vitro antibacterial activity, MIC by broth dilution. The data set is classed as cell-based. Particulars: Gram −ve bacteria.
The subject of data set [8] is Aspergillus flavus. The experiment in a line: In vitro antifungal activity, MIC by broth dilution. In kind it is cell-based. Particulars: fungi.
Data set [9] deals with Candida tropicals 750. The data set is described as above. The data set is classed as cell-based. Particulars: yeast, read-out: MIC C. tropicals.
The test system of data set [10] is all the tested yeasts and fungi strains. Nature of the data set: Antifungal MIC, range over the panel. In kind it is cell-based.
Data set [11] deals with Aspergillus niger EM77 (KF774181). The experiment in a line: In vitro antifungal activity, MIC by broth dilution. The data set is classed as cell-based. Particulars: fungi.
In data set [12] the test system is Saccharomycese cerevisiae. Described as above. The data set is classed as cell-based. Conditions: Saccharomyces cerevisiae, yeast, read-out: MIC S. cerevisiae.
Data set [13] has as its system Candida albicans 10231. The data set is described as above. The data set is classed as cell-based. Conditions: yeast, read-out: MIC C. albicans.
The subject of data set [14] is hepatocellular carcinoma (HepG2) cells. The experiment in a line: Cytotoxicity, MTT assay. In kind it is cell-based. Conditions: Homo sapiens, read-out: Cytotoxic activity IC50 HepG2. (Tetrazolium assays rely on reduction of a dye to a coloured formazan, in cell work by metabolically active cells.)
The test system of data set [15] is breast cancer (MCF-7) cells. The experiment in a line: Cytotoxicity, MTT assay. The data set is classed as cell-based, human. Conditions: Homo sapiens, MCF7, MCF7 cells, read-out: Cytotoxic activity IC50 MCF7.
Data set [16] deals with EGFR kinase (Homo sapiens, UniProt P00533). Nature of the data set: In vitro EGFR kinase inhibitory assay (Kinase-Glo MAX kit). Conditions: for IC50: EGFR IC50, EGFR kinase assay kit, triplicate, ± SD. For orientation: In Kinase-Glo more light means more ATP remaining.
Procedure: The assay kit is designed to measure EGFR Kinase activity for screening applications using Kinase-Glo® MAX as a detection reagent. The luminescence was measured using a microplate reader (Infinite M200 microplate reader, Tecan, Männedorf, Switzerland) [54]. All assays were performed in triplicate and the relative inhibition (%) of inhibitors was then calculated via comparison with the control with no inhibitor.
In vitro EGFR kinase assay
The assay Kit is designed to measure EGFR Kinase
activity for screening applications using Kinase-Glo® MAX as a detection reagent
using Kinase-Glo® MAX as a detection reagent. Thaw 5x Kinase Buffer 1: ATP and
PTK substrate Poly (Glu:Tyr 4:1) (10 mg/ml) kinase was provided. Then the master
mixture was prepared: N wells x (6 μl 5x Kinase Buffer 1 + 1 µl ATP (500 µM) + 1
µl PTK substrate Poly (Glu:Tyr 4:1) (10 mg/ml)+ 17 μl water) and 25 μl of the
mixture was added to every well. The tested compounds were dissolved in DMSO,
well labeled as “Positive Control", 5 μl of the same solution of the reference drug
erlotinib and “Blank”, 5 μl of the same solution without inhibitor (Inhibitor buffer).
ml of 1x Kinase Buffer 1) was prepared by mixing 600 µl of 5x Kinase Buffer 1 with
The reaction initiated by adding 20 µl of diluted EGFR enzyme to the wells designated “Positive Control” and "Test Inhibitor Control". Incubate at 30°C for 40
minutes. Thaw Kinase-G lo Max reagent. After the 40 minute reaction, 50 µl of
Kinase-Glo Max reagent was added to each well. The plate was covered with
aluminum foil and incubate at room temperature for 15 minutes. Then the
luminescence was measured using the microplate reader (Infinite M200 microplate
reader, Tecan, Männedorf, Switzerland). All assays were performed in triplicate. The
relative inhibition (%) of inhibitors were then calculated compared to the control with
no inhibitor. Then the IC50 values and their standard deviation (SD) for the tested
compounds and the reference drug were determined in (nM).
A short description of data set [17]: Cytotoxicity against normal cells, MTT assay. Conditions: human, WISH normal cells.
Source text: The cytotoxicity was estimated as IC50 in μM for the tested compounds and the reference drug doxorubicin, and are listed in Table 3.
Data set [18] relates to HepG2 and MCF-7 cancer cell lines. Nature of the data set: Cytotoxicity, MTT assay, range over both cancer cell lines. The data set is classed as cell-based, human. Conditions: Homo sapiens; range over HepG2 and MCF-7; read-out: IC50 range, cytotoxic activity against both cell lines.

Chain of EGFR kinase (P00533 25-1210): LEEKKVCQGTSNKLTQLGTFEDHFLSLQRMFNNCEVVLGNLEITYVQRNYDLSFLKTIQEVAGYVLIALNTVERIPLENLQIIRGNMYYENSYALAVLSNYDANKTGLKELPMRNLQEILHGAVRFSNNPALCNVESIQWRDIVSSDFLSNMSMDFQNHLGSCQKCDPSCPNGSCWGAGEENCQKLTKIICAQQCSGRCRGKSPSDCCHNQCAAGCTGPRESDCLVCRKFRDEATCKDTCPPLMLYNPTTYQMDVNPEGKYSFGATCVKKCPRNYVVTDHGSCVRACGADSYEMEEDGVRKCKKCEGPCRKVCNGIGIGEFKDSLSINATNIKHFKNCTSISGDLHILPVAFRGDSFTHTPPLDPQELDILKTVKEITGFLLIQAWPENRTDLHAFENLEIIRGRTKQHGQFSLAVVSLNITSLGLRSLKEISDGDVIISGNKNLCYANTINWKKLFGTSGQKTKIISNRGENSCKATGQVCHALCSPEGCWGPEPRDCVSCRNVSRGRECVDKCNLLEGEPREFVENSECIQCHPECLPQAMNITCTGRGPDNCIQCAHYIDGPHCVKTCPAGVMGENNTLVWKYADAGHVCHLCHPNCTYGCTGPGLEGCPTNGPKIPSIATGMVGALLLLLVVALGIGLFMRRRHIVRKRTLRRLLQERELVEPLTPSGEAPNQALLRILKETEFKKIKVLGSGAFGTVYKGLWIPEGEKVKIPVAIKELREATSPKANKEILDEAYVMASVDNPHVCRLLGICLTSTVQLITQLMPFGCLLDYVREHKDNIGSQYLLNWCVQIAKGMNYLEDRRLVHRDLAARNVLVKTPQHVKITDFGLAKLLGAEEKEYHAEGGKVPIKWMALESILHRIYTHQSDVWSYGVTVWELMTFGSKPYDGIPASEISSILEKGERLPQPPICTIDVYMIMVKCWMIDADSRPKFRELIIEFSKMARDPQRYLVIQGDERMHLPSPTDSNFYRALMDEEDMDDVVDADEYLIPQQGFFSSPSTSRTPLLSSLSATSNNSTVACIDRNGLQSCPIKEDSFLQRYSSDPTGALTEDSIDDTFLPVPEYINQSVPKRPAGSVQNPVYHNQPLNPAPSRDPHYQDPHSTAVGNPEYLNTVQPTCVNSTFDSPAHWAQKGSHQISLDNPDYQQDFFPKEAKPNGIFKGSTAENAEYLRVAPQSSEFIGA

`CC1(C)S[C@@H]2[C@H](NC(=O)[C@H](N)c3ccc(O)cc3)C(=O)N2[C@H]1C(=O)O` [Amoxicillin, amoxicillin trihydrate, reference compound]: the “MIC range against the tested bacterial strains” value in data set [1] was 4 to 16 µg/mL. In addition, the MIC is 16 µg/mL in [2]; 16 µg/mL in data set [3]; 4 µg/mL in data set [4]; 8 µg/mL in data set [5]; 8 µg/mL in [7]. The “MIC range of the reference drugs” value in data set [6] fell in the range of 4 to 16 µM.

For `Clc1ccccc1C(c1ccccc1)(c1ccccc1)n1ccnc1` [Clotrimazole, clotrimazole, reference compound], the MIC in [8] is 8 µg/mL (≈ 23.2 µM); in data set [9] it was 8 µg/mL (≈ 23.2 µM); in data set [11], 8 µg/mL (≈ 23.2 µM); in [12], 8 µg/mL (≈ 23.2 µM); in [13], 16 µg/mL (≈ 46.4 µM). In addition, in data set [10], the “MIC range against the tested yeasts and fungi strains” value fell in the range of 4 to 16 µg/mL. The “MIC range of the reference drugs” value in data set [6] lay within 4 to 16 µM.

Compound `Cc1cc(C)c2c(n1)sc1c(Cl)nc(Cl)nc12` [Compound 3a, 2,4-Dichloro-7,9-dimethylpyrido[3′,2′:4,5]thieno[3,2-d]pyrimidine] displayed a melting point of 250 to 251 °C. In data set [8], this compound yielded an MIC of 8 µg/mL (≈ 28.2 µM). The MIC in data set [2] was found to be 16 µg/mL (≈ 56.3 µM). In addition, in data set [9], the MIC came out at 8 µg/mL (≈ 28.2 µM). For the same compound, in [10], the “MIC range against the tested yeasts and fungi strains” value fell in the range of 4 to 16 µg/mL. The IC50 in [14] is 2.31 ± 0.35 µM. In addition, the minimum inhibitory concentration (MIC) in data set [3] was 8 µg/mL (≈ 28.2 µM). Also, in data set [11], inhibition of growth (MIC) required 8 µg/mL (≈ 28.2 µM). Moreover, the MIC in data set [4] amounted to 4 µg/mL (≈ 14.1 µM). Besides, the MIC in [5] was 4 µg/mL (≈ 14.1 µM). For the same compound, the “MIC range, antibacterial and antifungal” value in data set [6] (range over bacterial and fungal strains) was in the range of 4 to 16 µg/mL. The compound further yielded an MIC in data set [7] of 8 µg/mL (≈ 28.2 µM). The MIC in data set [12] turned out to be 8 µg/mL (≈ 28.2 µM). The MIC in data set [13] was found to be 16 µg/mL (≈ 56.3 µM). Also, the IC50 in [15] was found to be 7.24 ± 0.64 µM. Also, the half-maximal inhibitory concentration (IC50) in data set [16] is 0.0173 ± 0.00024 µM. The IC50 in data set [17] was 417 ± 15.2 µM.

The compound `Cc1cc(C)c2c(n1)sc1c(=O)[nH]c(CCl)nc12` [Compound 4a, 2-(Chloromethyl)-7,9-dimethylpyrido[3′,2′:4,5]thieno[3,2-d]pyrimidin-4(3H)-one] gave a melting point of 330 to 331 °C. In [8], this compound had an MIC of 8 µg/mL (≈ 28.6 µM). For the same compound, the MIC in data set [2] worked out at 16 µg/mL (≈ 57.2 µM). The MIC in data set [9] was found to be 16 µg/mL (≈ 57.2 µM). Besides, the “MIC range against the tested yeasts and fungi strains” value in [10] lay within 4 to 16 µg/mL. Further, the IC50 in [14] was determined as 2.99 ± 0.15 µM. In addition, in data set [3], the MIC came to 4 µg/mL (≈ 14.3 µM). The MIC in data set [11] worked out at 8 µg/mL (≈ 28.6 µM). For the same compound, in data set [4], the MIC turned out to be 4 µg/mL (≈ 14.3 µM). In addition, in data set [5], the MIC stood at 8 µg/mL (≈ 28.6 µM). For the same compound, the MIC in [7] was 8 µg/mL (≈ 28.6 µM). For the same compound, the MIC in data set [12] was determined as 8 µg/mL (≈ 28.6 µM). The MIC in data set [13] stood at 16 µg/mL (≈ 57.2 µM). Besides, in [15], the IC50 was found to be 15.4 ± 0.45 µM. Moreover, the IC50 in data set [16] was 0.027 µM and 0.0536 µM. Further, the “Fold more potent than erlotinib (EGFR inhibition)” value in data set [16] (relative to erlotinib) came out at 1.5 fold. Half-maximal inhibition in data set [17] (IC50) was put at 460 ± 11.1 µM.

In the case of `Cc1cc(C)c2c3c(sc2n1)C(=O)NC1(CCCC1)N3` [Compound 6a, 7′,9′-Dimethyl-1′H-spiro[cyclopentane-1,2′-pyrido[3′,2′:4,5]thieno[3,2-d]pyrimidin]-4′(3′H)-one], the melting point is 245 to 246 °C. The “MIC range against the tested bacterial strains” value in data set [1] is 8 to 32 µg/mL. Further, it took 64 µg/mL (≈ 223 µM) to inhibit growth in data set [8] (MIC). Besides, the MIC in data set [2] was 16 µg/mL (≈ 55.7 µM). Further, in data set [9], the minimal inhibitory concentration (MIC) is 16 µg/mL (≈ 55.7 µM). Besides, in data set [14], the IC50 came to 52.2 ± 1.45 µM. In addition, the MIC in [3] was 8 µg/mL (≈ 27.8 µM). For the same compound, the lowest concentration to inhibit growth in [11] (MIC) was 32 µg/mL (≈ 111 µM). In [18], the IC50 is 12.1 to 77.4 µM. In [4], the MIC came to 32 µg/mL (≈ 111 µM). In addition, the MIC in data set [5] is 16 µg/mL (≈ 55.7 µM). The compound also had an MIC in [7] of 32 µg/mL (≈ 111 µM). For the same compound, the MIC in data set [12] came out at 32 µg/mL (≈ 111 µM). Also, in [13], the MIC was determined as 64 µg/mL (≈ 223 µM). Besides, the IC50 in data set [15] is 77.4 ± 3.62 µM.
